pIC50: −log10 of the molar value.

From patent US7612201B2, “Pyrazole compounds” (Vernalis (Cambridge) Limited, priority 2002, dated 2009) come the findings set out here.

The target of this assay is T1, yeast HSP90 (Saccharomyces cerevisiae, UniProt P02829).
T1 construct: made in house; host or cells: E. coli
T1 sequence (P02829 whole entry): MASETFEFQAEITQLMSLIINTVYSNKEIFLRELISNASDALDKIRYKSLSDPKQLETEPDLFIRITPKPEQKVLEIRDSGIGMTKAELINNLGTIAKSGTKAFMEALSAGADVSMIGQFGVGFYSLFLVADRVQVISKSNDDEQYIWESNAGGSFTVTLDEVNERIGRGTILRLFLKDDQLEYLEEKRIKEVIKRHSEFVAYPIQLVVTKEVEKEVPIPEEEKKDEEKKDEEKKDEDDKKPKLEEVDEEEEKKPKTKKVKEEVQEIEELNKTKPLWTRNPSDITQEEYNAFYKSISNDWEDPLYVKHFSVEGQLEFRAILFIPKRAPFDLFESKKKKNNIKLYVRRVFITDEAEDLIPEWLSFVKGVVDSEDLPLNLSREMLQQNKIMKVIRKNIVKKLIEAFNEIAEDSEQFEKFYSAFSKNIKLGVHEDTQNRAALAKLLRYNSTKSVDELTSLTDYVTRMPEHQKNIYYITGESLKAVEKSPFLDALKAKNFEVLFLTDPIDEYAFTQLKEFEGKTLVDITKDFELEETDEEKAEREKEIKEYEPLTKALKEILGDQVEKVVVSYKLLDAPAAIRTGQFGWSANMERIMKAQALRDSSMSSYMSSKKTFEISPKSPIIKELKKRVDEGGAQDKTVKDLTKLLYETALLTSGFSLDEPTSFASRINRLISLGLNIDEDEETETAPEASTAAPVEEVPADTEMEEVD
Briefly: Malachite green ATPase assay. The format is biochemical. The settings on record: activity range. The text has this: The intrinsic ATPase activity of HSP90 may be measured using yeast HSP90 as a model system. The assay, based on the use of malachite green for the measurement of inorganic phosphate, was used to test the HSP90 inhibitory activity of the compounds of the Examples herein.
Malachite Green ATPase Assay
Chemicals are of the highest purity commercially available and all aqueous solutions are made up in AR water. Because of the need to minimise contamination with inorganic phosphate, precautions should be taken with solutions and apparatus used in the assays. Glassware and pH meters are rinsed with double distilled or deionised water before use and, wherever possible, plastic ware should be used. Gloves are worn for all procedures. • (1) Greiner 384-well (Greiner 781101) or Costar 384-well flat-bottomed polystyrene multiwell plates (VWR). • (2) Assay buffer of (a) 100 mM Tris-HCl, pH 7.4, (b) 150 mM KCl, (c) 6 mM MgCl2. Stored at room temperature. • (3) 0.0812% (w/v) malachite green (M 9636, Sigma Aldrich Ltd., Poole, UK). Stored at room temperature. • (4) 2.32% (w/v) polyvinyl alcohol USP (P 1097, Sigma Aldrich Ltd, Poole, UK) in boiling water (see Comment 1), allowed to cool, and stored at room temperature. • (5) 5.72% (w/v) ammonium molybdate in 6 M hydrochloric acid. Stored at room temperature. • (6) 34% (w/v) sodium citrate. Stored at room temperature. • (7) 100 mM ATP, disodium salt, special quality (47699, Sigma Aldrich). Stored at −20° C. • (8) E. coli expressed yeast HSP90 protein, purified >95% (see, e.g., Panaretou et al., 1998) and stored in 50 uL aliquots at −80° C.
Method • 1. Dilute test compounds to 500 μM in AR water (DMSO concentration will be 2.5%). Transfer 2.5 μl of these compounds directly from the daughter plate to the assay plate, giving a final assay concentration of 100 μM. To obtain 12 point IC50 values, perform serial dilutions 1:2 to produce a range of assay concentrations from 100 μM to 97.6 nM (2.5% DMSO), and transfer 2.5 μl of each concentration into the assay plate. Column 1 in the assay plate contains no compound, as a negative control. An additional row with no compound is also used as a background. • 2. Prepare ATP by diluting 100 mM stock to 925 μM with assay buffer, and aliquot 5 μl of diluted ATP to each well including controls (final assay concentration 370 μM). • 3. Add 5 μl of buffer to background row. • 4. Dilute enzyme preparation to 1.05 μM with assay buffer, and aliquot 5 μl into each compound well and to the negative control column. • 5. Collect the reagents to the bottom of the well, cover plate with plate seal and incubate overnight at 37 degC. • 6. First thing in the morning prepare the Malachite Green Reagent. Add 2 parts of Malachite Green Solution, 1 part of Polyvinyl Alcohol Solution, 1 part of Ammonium Molybdate Solution, and 2 parts of AR water. • 7. Invert to mix, and leave for approximately 1 hour until the colour turns from brown to golden yellow. • 8. Add 40 μl of Malachite Green Reagent to each well, allow 5 mins for colour to develop. • 9. Add 5 μl of Sodium Citrate Reagent to each well (see comment 2) • 10. Re-cover with plate seal and shake on plate shaker for at least 15 mins. • 11. Measure Absorbance at 620 nm using a suitable plate reader (e.g. Victor, Perkin Elmer Life Sciences, Milton Keynes, UK).
Comments • (1) The polyvinyl alcohol dissolves in boiling water with difficulty and stirring for 2-3 h is required. • (2) The time interval between addition of the malachite green reagent and the sodium citrate should be kept as short as possible in order to reduce the non-enzymatic hydrolysis of ATP. Once the sodium citrate is added, the colour is stable for up to 4 h at room temperature. • (3) Compounds can be added to the assay plates using a Biomek FX Robot (Beckman Coulter).
With `CC(C)(C)OC(=O)N1CCN(c2c[nH]nc2-c2cc(Cl)c(O)cc2O)CC1` [Example 1, 4-[3-(5-Chloro-2,4-dihydroxy-phenyl)-1H-pyrazol-4-yl]-piperazine-1-carboxylic acid tert-butyl ester], the pIC50 was < 4.30. To `Oc1cc(O)c(-c2n[nH]cc2N2CCOCC2)cc1Cl` [Example 3] belongs < 4.30.

`CN1CCN(c2c[nH]nc2-c2cc(Cl)c(O)cc2O)CC1` [Example 4]: the pIC50 is > 4.30. In the case of `Oc1cc(O)c(-c2n[nH]cc2N2CCN(Cc3ccco3)CC2)cc1Cl` [Example 5, 4-Chloro-6-[4-(4-furan-2-ylmethyl-piperazin-1-yl)-1H-pyrazol-3-yl]-benzene-1,3-diol], the pIC50 is < 4.30. As for `CCN1CCN(c2c[nH]nc2-c2cc(Cl)c(O)cc2O)CC1` [Example 6], the pIC50 was > 4.30. In the case of `Oc1cc(O)c(-c2n[nH]cc2N2CCN(Cc3cccnc3)CC2)cc1Cl` [Example 7], the negative logarithm of the IC50 (pIC50) is > 4.30.

As for `NNC(=O)CN1CCN(c2c[nH]nc2-c2cc(Cl)c(O)cc2O)CC1` [Example 8, {4-[3-(5-Chloro-2,4-dihydroxy-phenyl)-1H-pyrazol-4-yl]-piperazin-1-yl}-acetic acid hydrazide], the negative logarithm of the IC50 (pIC50) was < 4.30. With `OCCN1CCN(c2c[nH]nc2-c2cc(Cl)c(O)cc2O)CC1` [Example 9, 4-Chloro-6-{4-[4-(2-hydroxy-ethyl)-piperazin-1-yl]-1H-pyrazol-3-yl}-benzene-1,3-diol], the pIC50 was < 4.30. Consider `N#CCN1CCN(c2c[nH]nc2-c2cc(Cl)c(O)cc2O)CC1` [Example 10], for which the negative-log IC50 (pIC50) is < 4.30. As to `N#CCOc1cc(O)c(-c2n[nH]cc2N2CCN(CC#N)CC2)cc1Cl` [Example 11], the negative-log IC50 (pIC50) is < 4.30. To `N#CCCCN1CCN(c2c[nH]nc2-c2cc(Cl)c(O)cc2O)CC1` [Example 13] belongs > 4.30; to `COCCN1CCN(c2c[nH]nc2-c2cc(Cl)c(O)cc2O)CC1` [Example 14], > 4.30. `COC(=O)c1ccc(CN2CCN(c3c[nH]nc3-c3cc(Cl)c(O)cc3O)CC2)o1` [Example 15]: the negative-log IC50 (pIC50) was > 4.30. Regarding `COC(=O)c1cccc(CN2CCN(c3c[nH]nc3-c3cc(Cl)c(O)cc3O)CC2)c1` [Example 16], the pIC50 is > 4.30. Take `Oc1cc(O)c(-c2n[nH]cc2N2CCN(Cc3ncon3)CC2)cc1Cl` [Example 17]: the pIC50 is > 4.30. In the case of `Oc1cc(O)c(-c2n[nH]cc2N2CCN(Cc3ccc(Cl)cc3)CC2)cc1Cl` [Example 18], the pIC50 was > 4.30. `N#Cc1cccc(CN2CCN(c3c[nH]nc3-c3cc(Cl)c(O)cc3O)CC2)c1` [Example 19]: the pIC50 is > 4.30.

Take `NC(=O)CN1CCN(c2c[nH]nc2-c2cc(Cl)c(O)cc2O)CC1` [Example 20]: the negative-log IC50 (pIC50) was > 4.30. Consider `COC(=O)c1ccc(CN2CCN(c3c[nH]nc3-c3cc(Cl)c(O)cc3O)CC2)cc1` [Example 21], for which the negative-log IC50 (pIC50) was > 4.30. In the case of `N#Cc1ccc(CN2CCN(c3c[nH]nc3-c3cc(Cl)c(O)cc3O)CC2)cc1` [Example 22], the pIC50 is > 4.30. For the molecule `N#Cc1ccccc1CN1CCN(c2c[nH]nc2-c2cc(Cl)c(O)cc2O)CC1` [Example 23], the pIC50 was > 4.30. In the case of `NC(=O)c1cccc(CN2CCN(c3c[nH]nc3-c3cc(Cl)c(O)cc3O)CC2)c1` [Example 25] it was > 4.30; in that of `COc1ccc(CN2CCN(c3c[nH]nc3-c3cc(Cl)c(O)cc3O)CC2)cc1` [Example 26], > 4.30; in that of `C#CC[N+]1(CC#C)CCN(c2c[nH]nc2-c2cc(Cl)c(O)cc2O)CC1` [Example 27], > 4.30. For `O=C(O)c1ccc(CN2CCN(c3c[nH]nc3-c3cc(Cl)c(O)cc3O)CC2)o1` [Example 28], the negative logarithm of the IC50 (pIC50) was > 4.30. In the case of `O=C(O)c1cccc(CN2CCN(c3c[nH]nc3-c3cc(Cl)c(O)cc3O)CC2)c1` [Example 29], the negative logarithm of the IC50 (pIC50) was > 4.30. Turning to `OCCCN1CCN(c2c[nH]nc2-c2cc(Cl)c(O)cc2O)CC1` [Example 30], the pIC50 was > 4.30. On to `Oc1cc(O)c(-c2n[nH]cc2N2CCN(Cc3ccccn3)CC2)cc1Cl` [Example 31], for which the negative logarithm of the IC50 (pIC50) was > 4.30. For the molecule `COC(=O)c1ccc(C(=O)N2CCN(c3c[nH]nc3-c3cc(Cl)c(O)cc3O)CC2)cc1` [Example 32], the pIC50 is < 4.30. As to `Cn1c(CN2CCN(c3c[nH]nc3-c3cc(Cl)c(O)cc3O)CC2)nc2ccccc21` [Example 33], the negative-log IC50 (pIC50) is < 4.30. As for `Oc1cc(O)c(-c2n[nH]cc2N2CCN(CCc3ccccc3)CC2)cc1Cl` [Example 34], the negative-log IC50 (pIC50) was > 4.30. Consider `O=C(O)c1ccc(CN2CCN(c3c[nH]nc3-c3cc(Cl)c(O)cc3O)CC2)cc1` [Example 35], for which the pIC50 is > 4.30. Consider `NC(=O)c1ccc(CN2CCN(c3c[nH]nc3-c3cc(Cl)c(O)cc3O)CC2)cc1` [Example 36], for which the negative logarithm of the IC50 (pIC50) was > 4.30. With `Cc1cc(NC(=O)c2ccc(CN3CCN(c4c[nH]nc4-c4cc(Cl)c(O)cc4O)CC3)cc2)no1` [Example 37], the pIC50 is > 4.30. Take `Oc1cc(O)c(-c2n[nH]cc2N2CCN(Cc3ccc(-c4cnns4)cc3)CC2)cc1Cl` [Example 38]: the negative-log IC50 (pIC50) is > 4.30.

Turning to `Oc1cc(O)c(-c2n[nH]cc2N2CCN(Cc3ccc(-n4cccn4)cc3)CC2)cc1Cl` [Example 39], the negative logarithm of the IC50 (pIC50) was > 4.30. Turning to `O=C(CN1CCN(c2c[nH]nc2-c2cc(Cl)c(O)cc2O)CC1)N1CCOCC1` [Example 40], the pIC50 is > 4.30. As for `CC(C)(C)OC(=O)CN1CCN(c2c[nH]nc2-c2cc(Cl)c(O)cc2O)CC1` [Example 41], the pIC50 was < 4.30. Regarding `CC(c1ccccc1)N1CCN(c2c[nH]nc2-c2cc(Cl)c(O)cc2O)CC1` (centres unmarked) [Example 43], the negative-log IC50 (pIC50) was > 4.30. With `CCNC(=O)c1[nH]nc(-c2cc(Cl)c(O)cc2O)c1N1CCNCC1` [Example 51, 5-(5-Chloro-2,4-dihydroxy-phenyl)-4-piperazin-1-yl-2H-pyrazole-3-carboxylic acid ethylamide], the pIC50 was > 4.30.

For the molecule `Oc1cc(F)ccc1-c1n[nH]cc1N1CCNCC1` [Example 52, 3-(4-Fluoro-2-hydroxyphenyl)-4-(piperazin-1-yl)-1H-pyrazole], the pIC50 was < 4.30. As for `Oc1cc(O)c(-c2n[nH]cc2N2CCNCC2)cc1Br` [Example 55], the negative logarithm of the IC50 (pIC50) is < 4.30. Turning to `Cn1ncc(N2CCNCC2)c1-c1cc(Br)c(O)cc1O` [Example 56], the negative logarithm of the IC50 (pIC50) was < 4.30.

In the case of `Cn1cc(N2CCNCC2)c(-c2cc(Br)c(O)cc2O)n1` [Example 57], the pIC50 is < 4.30.

Turning to `CCn1cc(N2CCNCC2)c(-c2cc(Br)c(O)cc2O)n1` [Example 59], the pIC50 is < 4.30. For the molecule `CC(C)n1ncc(N2CCNCC2)c1-c1cc(Br)c(O)cc1O` [Example 60], the negative logarithm of the IC50 (pIC50) was < 4.30. For `CC(C)n1cc(N2CCNCC2)c(-c2cc(Br)c(O)cc2O)n1` [Example 61], the pIC50 was < 4.30. In the case of `Oc1cc(O)c(-c2c(N3CCNCC3)cnn2Cc2ccccc2)cc1Br` [Example 62], the negative logarithm of the IC50 (pIC50) was < 4.30. Consider `Oc1cc(O)c(-c2nn(Cc3ccccc3)cc2N2CCNCC2)cc1Br` [Example 63], for which the pIC50 was < 4.30. To `CCOC(=O)Cn1cc(N2CCNCC2)c(-c2cc(Br)c(O)cc2O)n1` [Example 64] belongs < 4.30. For `Oc1cc(O)c(-c2n[nH]cc2N2CCNCC2)cc1CCc1ccc2c(c1)OCO2` [Example 65], the negative logarithm of the IC50 (pIC50) is > 4.30. As for `Oc1cc(O)c(-c2n[nH]cc2N2CCNCC2)cc1CCc1cccc2c1OCO2` [Example 66], the pIC50 is > 4.30. In the case of `COc1ccc(OC)c(CCc2cc(-c3n[nH]cc3N3CCNCC3)c(O)cc2O)c1` [Example 67], the negative logarithm of the IC50 (pIC50) is > 4.30.
